# From the NIST ThermoML archive (doi:10.1021/je500917k)
# ± gives the expanded uncertainty stated by the source.
# Key:
# [1] = 100 kPa, Liquid; for speed of sound: Frequency=2 MHz
# [2] = xn = mol fraction of the nth substance listed; conditions: 100 kPa, Liquid; for speed of sound: Frequency=2 MHz
SMILES,mass density ([1]; 293.15 K) [kg/m3],viscosity ([1]; 293.15 K) [mPa·s],speed of sound ([1]; 293.15 K) [m/s],mass density ([1]; 303.15 K) [kg/m3],viscosity ([1]; 303.15 K) [mPa·s],speed of sound ([1]; 303.15 K) [m/s],mass density ([1]; 313.15 K) [kg/m3],viscosity ([1]; 313.15 K) [mPa·s],speed of sound ([1]; 313.15 K) [m/s],mass density ([1]; 323.15 K) [kg/m3],viscosity ([1]; 323.15 K) [mPa·s],speed of sound ([1]; 323.15 K) [m/s],further results
CCNCCO [2-(ethylamino)ethanol],917.79 ± 0.55,15.28 ± 0.28,1442.4 ± 2.9,909.82 ± 0.56,9.59 ± 0.19,1408.3 ± 2.9,901.79 ± 0.57,6.406 ± 0.13,1374.5 ± 2.9,893.68 ± 0.57,4.527 ± 0.1,1340.9 ± 2.9,–
CNCCO [2-(methylamino)ethanol],941.79 ± 0.54,13.42 ± 0.25,1486.5 ± 2.9,934.02 ± 0.54,8.58 ± 0.17,1454.6 ± 2.9,926.18 ± 0.55,5.869 ± 0.12,1422.7 ± 2.9,918.25 ± 0.55,4.096 ± 0.092,1390.9 ± 2.9,–
CNCCO [2-(methylamino)ethanol] + CCN1CCCC1=O,–,–,–,–,–,–,–,–,–,–,–,–,"speed of sound ([2]; 293.15 K, x2 = 0): 1486.5 ± 2.9 m/s; mass density ([2]; 293.15 K, x2 = 0): 941.79 ± 0.54 kg/m3; viscosity ([2]; 293.15 K, x2 = 0): 13.42 ± 0.25 mPa·s; speed of sound ([2]; 303.15 K, x2 = 0): 1454.6 ± 2.9 m/s; mass density ([2]; 303.15 K, x2 = 0): 934.02 ± 0.54 kg/m3; viscosity ([2]; 303.15 K, x2 = 0): 8.58 ± 0.17 mPa·s; speed of sound ([2]; 313.15 K, x2 = 0): 1422.7 ± 2.9 m/s; mass density ([2]; 313.15 K, x2 = 0): 926.18 ± 0.55 kg/m3; viscosity ([2]; 313.15 K, x2 = 0): 5.869 ± 0.12 mPa·s; speed of sound ([2]; 323.15 K, x2 = 0): 1390.9 ± 2.9 m/s; mass density ([2]; 323.15 K, x2 = 0): 918.25 ± 0.55 kg/m3; viscosity ([2]; 323.15 K, x2 = 0): 4.096 ± 0.092 mPa·s"
CCN1CCCC1=O [1-ethyl-2-pyrrolidinone] + CCNCCO,–,–,–,–,–,–,–,–,–,–,–,–,"speed of sound ([2]; 293.15 K, x1 = 1): 1512.1 ± 3.4 m/s; mass density ([2]; 293.15 K, x1 = 1): 997.71 ± 0.94 kg/m3; viscosity ([2]; 293.15 K, x1 = 1): 2.117 ± 0.053 mPa·s; speed of sound ([2]; 303.15 K, x1 = 1): 1474.2 ± 3.4 m/s; mass density ([2]; 303.15 K, x1 = 1): 989.14 ± 0.94 kg/m3; viscosity ([2]; 303.15 K, x1 = 1): 1.771 ± 0.045 mPa·s; speed of sound ([2]; 313.15 K, x1 = 1): 1436 ± 3.4 m/s; mass density ([2]; 313.15 K, x1 = 1): 980.56 ± 0.94 kg/m3; viscosity ([2]; 313.15 K, x1 = 1): 1.518 ± 0.039 mPa·s; speed of sound ([2]; 323.15 K, x1 = 1): 1398.5 ± 3.4 m/s; mass density ([2]; 323.15 K, x1 = 1): 971.96 ± 0.94 kg/m3; viscosity ([2]; 323.15 K, x1 = 1): 1.299 ± 0.034 mPa·s"
CCN1CCCC1=O [1-ethyl-2-pyrrolidinone],997.71 ± 0.94,2.117 ± 0.053,1512.1 ± 3.4,989.14 ± 0.94,1.771 ± 0.045,1474.2 ± 3.4,980.56 ± 0.94,1.518 ± 0.039,1436 ± 3.4,971.96 ± 0.94,1.299 ± 0.034,1398.5 ± 3.4,–
